# Assay results: the supplement of paper PMC10307832
# Experiments:
# Experiment in all cases: relative viability (nuclei count vs DMSO), 5 days (fraction); higher = more cells survive
# Motesanib + Bortezomib = compound: CC1(C)CNc2cc(NC(=O)c3cccnc3NCc3ccncc3)ccc21 [Motesanib] + CC(C)C[C@H](NC(=O)[C@H](Cc1ccccc1)NC(=O)c1cnccn1)B(O)O [Bortezomib] (partner 0.002 µM)
# In short: (§1)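 Cells from lung cancer lines were seeded into 1536-well plates and, one day later, dosed by pin tool. Treatments were either a single drug or a fixed dose of an anchor drug with five library-drug doses (not always all listed) in √10 steps. After 5 days, nuclei were stained in a one-step fixation (final 0.05% Triton X-100, 1% formaldehyde, 1 ug/ml Hoechst) and counted on 4× images, and relative viability is the treated-to-vehicle nuclei ratio, as the median of duplicate plates.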
# Motesanib + Linsitinib = compound: CC1(C)CNc2cc(NC(=O)c3cccnc3NCc3ccncc3)ccc21 [Motesanib] + C[C@]1(O)C[C@@H](c2nc(-c3ccc4ccc(-c5ccccc5)nc4c3)c3c(N)nccn32)C1 [Linsitinib] (partner 1 µM)
# In short: as §1
# [1] = compound: C[C@@]1(C(=O)Nc2ccc(F)nc2)CCCN1c1nc(Nc2cc(C3CC3)n[nH]2)c2cccn2n1 + CC(=O)c1c(C)c2cnc(Nc3ccc(N4CCNCC4)cn3)nc2n(C2CCCC2)c1=O [Palbociclib] (partner 0.5 µM)
# In short: as §1
# [2] = compound: C[C@@]1(C(=O)Nc2ccc(F)nc2)CCCN1c1nc(Nc2cc(C3CC3)n[nH]2)c2cccn2n1 + Cc1nc(Nc2ncc(C(=O)Nc3c(C)cccc3Cl)s2)cc(N2CCN(CCO)CC2)n1 [Dasatinib] (partner 0.075 µM)
# In short: as §1
Cell Line,relative viability (Motesanib + Bortezomib; first compound 0.01 µM),relative viability (Motesanib + Bortezomib; first compound 0.03162 µM),relative viability (Motesanib + Bortezomib; first compound 0.1 µM),relative viability (Motesanib + Bortezomib; first compound 0.3162 µM),relative viability (Motesanib + Bortezomib; first compound 1 µM),relative viability (Motesanib + Linsitinib; first compound 0.01 µM),relative viability (Motesanib + Linsitinib; first compound 0.03162 µM),relative viability (Motesanib + Linsitinib; first compound 0.1 µM),relative viability (Motesanib + Linsitinib; first compound 0.3162 µM),relative viability (Motesanib + Linsitinib; first compound 1 µM),relative viability ([1]; first compound 0.04 µM),relative viability ([1]; first compound 0.1265 µM),relative viability ([1]; first compound 0.4 µM),relative viability ([1]; first compound 1.265 µM),relative viability ([2]; first compound 0.04 µM),relative viability ([2]; first compound 0.1265 µM),relative viability ([2]; first compound 0.4 µM),relative viability ([2]; first compound 1.265 µM)
201T,1.05,1.07,1.08,1.17,1.08,1,1.09,1.03,1.05,1.02,0.317,0.264,0.311,0.365,0.326,0.29,0.301,0.324
A549,,,,,,0.532,0.633,0.571,0.624,0.773,,,,,,,,
A-427,1.03,0.956,0.973,0.969,1.05,1.06,1.11,1.07,1.22,1.22,0.497,0.459,0.459,0.472,0.632,0.557,0.617,0.453
ABC-1,0.282,0.341,0.221,0.284,0.292,1.01,0.891,0.752,0.587,0.774,0.647,0.42,0.437,0.477,0.51,0.395,0.366,0.204
BEN,0.696,0.793,0.869,0.861,0.935,0.932,0.842,1.08,0.886,1.05,0.445,0.484,0.472,0.427,0.32,0.382,0.329,0.271
CAL-12T,,,0.906,1.16,0.926,0.81,0.801,0.876,0.882,0.822,0.407,0.407,0.358,0.164,0.239,0.146,0.101,0.0918
COR-L23,1.01,0.974,1.04,1.11,0.914,0.943,0.862,0.92,1.09,0.905,0.242,0.308,0.197,0.173,0.433,0.334,0.214,0.219
COR-L 105,0.873,1.01,0.939,1.02,0.785,0.872,1.22,1.04,0.889,1.17,0.416,0.422,0.435,0.438,0.3,0.208,0.185,0.18
Calu-6,0.896,1.04,0.926,1.05,0.889,0.971,0.932,0.961,0.955,1.08,,,,,,,,
ChaGo-K-1,,0.666,0.841,0.976,1.11,,,,,,0.972,0.828,0.86,0.93,0.505,0.486,0.522,0.443
EBC-1,0.637,0.56,0.557,0.537,0.559,0.829,0.941,0.978,0.959,0.937,,,,,,,,
